Results from ChEMBL document CHEMBL5303573, “Mapping human microbiome drug metabolism by gut bacteria and their genes” (Nature, 2019).

conditions: akkermansia muciniphila, 12 h, 2 µM
Description: The drug is tested on Akkermansia muciniphila strain: ATCC BAA-835 for biotransformation. The drug concentrations were measured before and after a 12-h incubation by liquid-chromatography-coupled mass spectrometry (LC–MS)

Bacterial Biotransformation | SMILES
Compound NOT metabolized | COc1cc2nc(N(C)CCCNC(=O)C3CCCO3)nc(N)c2cc1OC (stereo not given) [ALFUZOSIN]
Compound NOT metabolized | CC[C@@]1(O)C(=O)OCc2c1cc1n(c2=O)Cc2cc3c(CN(C)C)c(O)ccc3nc2-1 [TOPOTECAN]
Compound NOT metabolized | CCN1CCCC1CNC(=O)c1cc(S(N)(=O)=O)ccc1OC (stereo not given) [SULPIRIDE]

assay: The drug is tested on Ruminococcus lactaris strain: ATCC29176 for biotransformation. The drug concentrations were measured before and after a 12-h incubation by liquid-chromatography-coupled mass spectrometry (LC–MS); conditions: 2 µM

Bacterial Biotransformation | SMILES
Compound NOT metabolized | CC[C@@]1(O)C(=O)OCc2c1cc1n(c2=O)Cc2cc3c(CN(C)C)c(O)ccc3nc2-1 [TOPOTECAN]
Compound NOT metabolized | CCN1CCCC1CNC(=O)c1cc(S(N)(=O)=O)ccc1OC (stereo not given) [SULPIRIDE]

assay: The drug is tested on Eubacterium ventriosum strain: ATCC27560 for biotransformation. The drug concentrations were measured before and after a 12-h incubation by liquid-chromatography-coupled mass spectrometry (LC–MS); type: ADME; design: dose 2 uM, timepoint 0 vs 12 hours; conditions: 2 µM

Bacterial Biotransformation | SMILES
Compound NOT metabolized | COc1cc2nc(N(C)CCCNC(=O)C3CCCO3)nc(N)c2cc1OC (stereo not given) [ALFUZOSIN]
Compound NOT metabolized | CC[C@@]1(O)C(=O)OCc2c1cc1n(c2=O)Cc2cc3c(CN(C)C)c(O)ccc3nc2-1 [TOPOTECAN]
Compound NOT metabolized | CCN1CCCC1CNC(=O)c1cc(S(N)(=O)=O)ccc1OC (stereo not given) [SULPIRIDE]

conditions: roseburia intestinalis, 12 h, 2 µM
Description: The drug is tested on Roseburia intestinalis strain: L1-82 for biotransformation. The drug concentrations were measured before and after a 12-h incubation by liquid-chromatography-coupled mass spectrometry (LC–MS)

Bacterial Biotransformation | SMILES
Compound NOT metabolized | COc1cc2nc(N(C)CCCNC(=O)C3CCCO3)nc(N)c2cc1OC (stereo not given) [ALFUZOSIN]
Compound NOT metabolized | CC[C@@]1(O)C(=O)OCc2c1cc1n(c2=O)Cc2cc3c(CN(C)C)c(O)ccc3nc2-1 [TOPOTECAN]
Compound NOT metabolized | CCN1CCCC1CNC(=O)c1cc(S(N)(=O)=O)ccc1OC (stereo not given) [SULPIRIDE]

assay: The drug is tested on Providencia rettgeri strain: DSM1131 for biotransformation. The drug concentrations were measured before and after a 12-h incubation by liquid-chromatography-coupled mass spectrometry (LC–MS); type: ADME; design: dose 2 uM, timepoint 0 vs 12 hours; conditions: 2 µM

Bacterial Biotransformation | SMILES
Compound NOT metabolized | COc1cc2nc(N(C)CCCNC(=O)C3CCCO3)nc(N)c2cc1OC (stereo not given) [ALFUZOSIN]
Compound NOT metabolized | CC[C@@]1(O)C(=O)OCc2c1cc1n(c2=O)Cc2cc3c(CN(C)C)c(O)ccc3nc2-1 [TOPOTECAN]
Compound NOT metabolized | CCN1CCCC1CNC(=O)c1cc(S(N)(=O)=O)ccc1OC (stereo not given) [SULPIRIDE]

assay: The drug is tested on Bacteroides uniformis strain: ATCC8492 for biotransformation. The drug concentrations were measured before and after a 12-h incubation by liquid-chromatography-coupled mass spectrometry (LC–MS); conditions: 2 µM

Bacterial Biotransformation | SMILES
Compound NOT metabolized | CC[C@@]1(O)C(=O)OCc2c1cc1n(c2=O)Cc2cc3c(CN(C)C)c(O)ccc3nc2-1 [TOPOTECAN]
Compound NOT metabolized | CCN1CCCC1CNC(=O)c1cc(S(N)(=O)=O)ccc1OC (stereo not given) [SULPIRIDE]

assay: The drug is tested on Enterococcus faecalis strain: V583 for biotransformation. The drug concentrations were measured before and after a 12-h incubation by liquid-chromatography-coupled mass spectrometry (LC–MS); conditions: 2 µM

Bacterial Biotransformation | SMILES
Compound NOT metabolized | COc1cc2nc(N(C)CCCNC(=O)C3CCCO3)nc(N)c2cc1OC (stereo not given) [ALFUZOSIN]
Compound NOT metabolized | CCN1CCCC1CNC(=O)c1cc(S(N)(=O)=O)ccc1OC (stereo not given) [SULPIRIDE]

conditions: segatella copri, 12 h, 2 µM
Description: The drug is tested on Prevotella copri strain: DSM18205 for biotransformation. The drug concentrations were measured before and after a 12-h incubation by liquid-chromatography-coupled mass spectrometry (LC–MS)

Bacterial Biotransformation | SMILES
Compound NOT metabolized | COc1cc2nc(N(C)CCCNC(=O)C3CCCO3)nc(N)c2cc1OC (stereo not given) [ALFUZOSIN]
Compound NOT metabolized | CC[C@@]1(O)C(=O)OCc2c1cc1n(c2=O)Cc2cc3c(CN(C)C)c(O)ccc3nc2-1 [TOPOTECAN]

assay: The drug is tested on Blautia hansenii strain: DSM20583 for biotransformation. The drug concentrations were measured before and after a 12-h incubation by liquid-chromatography-coupled mass spectrometry (LC–MS); conditions: 2 µM

Bacterial Biotransformation | SMILES
Compound NOT metabolized | COc1cc2nc(N(C)CCCNC(=O)C3CCCO3)nc(N)c2cc1OC (stereo not given) [ALFUZOSIN]
Compound NOT metabolized | CC[C@@]1(O)C(=O)OCc2c1cc1n(c2=O)Cc2cc3c(CN(C)C)c(O)ccc3nc2-1 [TOPOTECAN]
Compound NOT metabolized | CCN1CCCC1CNC(=O)c1cc(S(N)(=O)=O)ccc1OC (stereo not given) [SULPIRIDE]

assay: The drug is tested on Alistipes indistinctus strain: DSM22520 for biotransformation. The drug concentrations were measured before and after a 12-h incubation by liquid-chromatography-coupled mass spectrometry (LC–MS); conditions: 2 µM

Bacterial Biotransformation | SMILES
Compound NOT metabolized | CCN1CCCC1CNC(=O)c1cc(S(N)(=O)=O)ccc1OC (stereo not given) [SULPIRIDE]

assay: The drug is tested on Bacteroides fragilis strain: HMW615 for biotransformation. The drug concentrations were measured before and after a 12-h incubation by liquid-chromatography-coupled mass spectrometry (LC–MS); conditions: 2 µM

Bacterial Biotransformation | SMILES
Compound NOT metabolized | COc1cc2nc(N(C)CCCNC(=O)C3CCCO3)nc(N)c2cc1OC (stereo not given) [ALFUZOSIN]
Compound NOT metabolized | CC[C@@]1(O)C(=O)OCc2c1cc1n(c2=O)Cc2cc3c(CN(C)C)c(O)ccc3nc2-1 [TOPOTECAN]

assay: The drug is tested on Ruminococcus torques strain: ATCC27756 for biotransformation. The drug concentrations were measured before and after a 12-h incubation by liquid-chromatography-coupled mass spectrometry (LC–MS); type: ADME; design: dose 2 uM, timepoint 0 vs 12 hours; conditions: 2 µM

Bacterial Biotransformation | SMILES
Compound NOT metabolized | COc1cc2nc(N(C)CCCNC(=O)C3CCCO3)nc(N)c2cc1OC (stereo not given) [ALFUZOSIN]
Compound NOT metabolized | CC[C@@]1(O)C(=O)OCc2c1cc1n(c2=O)Cc2cc3c(CN(C)C)c(O)ccc3nc2-1 [TOPOTECAN]
Compound NOT metabolized | CCN1CCCC1CNC(=O)c1cc(S(N)(=O)=O)ccc1OC (stereo not given) [SULPIRIDE]

assay: The drug is tested on Dorea formicigenerans strain: ATCC27755 for biotransformation. The drug concentrations were measured before and after a 12-h incubation by liquid-chromatography-coupled mass spectrometry (LC–MS); conditions: 2 µM

Bacterial Biotransformation | SMILES
Compound NOT metabolized | COc1cc2nc(N(C)CCCNC(=O)C3CCCO3)nc(N)c2cc1OC (stereo not given) [ALFUZOSIN]
Compound NOT metabolized | CC[C@@]1(O)C(=O)OCc2c1cc1n(c2=O)Cc2cc3c(CN(C)C)c(O)ccc3nc2-1 [TOPOTECAN]
Compound NOT metabolized | CCN1CCCC1CNC(=O)c1cc(S(N)(=O)=O)ccc1OC (stereo not given) [SULPIRIDE]

assay: The drug is tested on Clostridium sporogenes strain: ATCC15579 for biotransformation. The drug concentrations were measured before and after a 12-h incubation by liquid-chromatography-coupled mass spectrometry (LC–MS); conditions: 2 µM

Bacterial Biotransformation | SMILES
Compound NOT metabolized | COc1cc2nc(N(C)CCCNC(=O)C3CCCO3)nc(N)c2cc1OC (stereo not given) [ALFUZOSIN]
Compound NOT metabolized | CC[C@@]1(O)C(=O)OCc2c1cc1n(c2=O)Cc2cc3c(CN(C)C)c(O)ccc3nc2-1 [TOPOTECAN]
Compound NOT metabolized | CCN1CCCC1CNC(=O)c1cc(S(N)(=O)=O)ccc1OC (stereo not given) [SULPIRIDE]

assay: The drug is tested on Bacteroides xylanisolvens strain: DSM18836 for biotransformation. The drug concentrations were measured before and after a 12-h incubation by liquid-chromatography-coupled mass spectrometry (LC–MS); conditions: 2 µM

Bacterial Biotransformation | SMILES
Compound NOT metabolized | COc1cc2nc(N(C)CCCNC(=O)C3CCCO3)nc(N)c2cc1OC (stereo not given) [ALFUZOSIN]
Compound NOT metabolized | CC[C@@]1(O)C(=O)OCc2c1cc1n(c2=O)Cc2cc3c(CN(C)C)c(O)ccc3nc2-1 [TOPOTECAN]
Compound NOT metabolized | CCN1CCCC1CNC(=O)c1cc(S(N)(=O)=O)ccc1OC (stereo not given) [SULPIRIDE]

assay: The drug is tested on Bifidobacterium ruminantium strain: fecal isolate for biotransformation. The drug concentrations were measured before and after a 12-h incubation by liquid-chromatography-coupled mass spectrometry (LC–MS); conditions: 2 µM

Bacterial Biotransformation | SMILES
Compound NOT metabolized | COc1cc2nc(N(C)CCCNC(=O)C3CCCO3)nc(N)c2cc1OC (stereo not given) [ALFUZOSIN]
Compound NOT metabolized | CC[C@@]1(O)C(=O)OCc2c1cc1n(c2=O)Cc2cc3c(CN(C)C)c(O)ccc3nc2-1 [TOPOTECAN]

assay: The drug is tested on Odoribacter splanchnicus strain: fecal isolate for biotransformation. The drug concentrations were measured before and after a 12-h incubation by liquid-chromatography-coupled mass spectrometry (LC–MS); conditions: 2 µM

Bacterial Biotransformation | SMILES
Compound NOT metabolized | COc1cc2nc(N(C)CCCNC(=O)C3CCCO3)nc(N)c2cc1OC (stereo not given) [ALFUZOSIN]
Compound NOT metabolized | CC[C@@]1(O)C(=O)OCc2c1cc1n(c2=O)Cc2cc3c(CN(C)C)c(O)ccc3nc2-1 [TOPOTECAN]

conditions: anaerostipes sp., 12 h, 2 µM
Description: The drug is tested on Anaerostipes sp. strain: fecal isolate for biotransformation. The drug concentrations were measured before and after a 12-h incubation by liquid-chromatography-coupled mass spectrometry (LC–MS)

Bacterial Biotransformation | SMILES
Compound NOT metabolized | COc1cc2nc(N(C)CCCNC(=O)C3CCCO3)nc(N)c2cc1OC (stereo not given) [ALFUZOSIN]
Compound NOT metabolized | CC[C@@]1(O)C(=O)OCc2c1cc1n(c2=O)Cc2cc3c(CN(C)C)c(O)ccc3nc2-1 [TOPOTECAN]
Compound NOT metabolized | CCN1CCCC1CNC(=O)c1cc(S(N)(=O)=O)ccc1OC (stereo not given) [SULPIRIDE]

assay: The drug is tested on Coprococcus comes strain: ATCC27758 for biotransformation. The drug concentrations were measured before and after a 12-h incubation by liquid-chromatography-coupled mass spectrometry (LC–MS); type: ADME; design: dose 2 uM, timepoint 0 vs 12 hours; conditions: 2 µM

Bacterial Biotransformation | SMILES
Compound NOT metabolized | COc1cc2nc(N(C)CCCNC(=O)C3CCCO3)nc(N)c2cc1OC (stereo not given) [ALFUZOSIN]
Compound NOT metabolized | CC[C@@]1(O)C(=O)OCc2c1cc1n(c2=O)Cc2cc3c(CN(C)C)c(O)ccc3nc2-1 [TOPOTECAN]
Compound NOT metabolized | CCN1CCCC1CNC(=O)c1cc(S(N)(=O)=O)ccc1OC (stereo not given) [SULPIRIDE]

assay: The drug is tested on Bacteroides vulgatus strain: ATCC8482 for biotransformation. The drug concentrations were measured before and after a 12-h incubation by liquid-chromatography-coupled mass spectrometry (LC–MS); conditions: phocaeicola vulgatus, 2 µM

Bacterial Biotransformation | SMILES
Compound NOT metabolized | CC[C@@]1(O)C(=O)OCc2c1cc1n(c2=O)Cc2cc3c(CN(C)C)c(O)ccc3nc2-1 [TOPOTECAN]
Compound NOT metabolized | CCN1CCCC1CNC(=O)c1cc(S(N)(=O)=O)ccc1OC (stereo not given) [SULPIRIDE]
